Data as given in PubChem BioAssay (NCI).
“And” between values parts separate entries of the source, which are not always exact repeats. Equal entries are not always repeated.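 48-hour exposure; five concentrations; linearly interpolated endpoints. GI50: concentration for 50% inhibition of growth. At the TGI there is no net growth.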

Experiments:
Assay in all cases: growth of human tumour cells (NCI), 48 h
HCC-2998 colon = test system: HCC-2998 colon
M14 melanoma = test system: M14 melanoma
NCI-H23 lung = test system: NCI-H23 lung
NCI-H522 lung = test system: NCI-H522 lung
OVCAR-3 ovarian = test system: OVCAR-3 ovarian
SF-539 CNS = test system: SF-539 CNS
SK-MEL-5 melanoma = test system: SK-MEL-5 melanoma
SN12C renal = test system: SN12C renal
U251 CNS = test system: U251 CNS
UO-31 renal = test system: UO-31 renal

Row | SMILES | GI50 (HCC-2998 colon) [µM] | TGI (HCC-2998 colon) | GI50 (M14 melanoma) [µM] | TGI (M14 melanoma) [µM] | GI50 (NCI-H23 lung) [µM] | TGI (NCI-H23 lung) | GI50 (NCI-H522 lung) [µM] | TGI (NCI-H522 lung) | GI50 (OVCAR-3 ovarian) [µM] | TGI (OVCAR-3 ovarian) | GI50 (SF-539 CNS) [µM] | TGI (SF-539 CNS) [µM] | GI50 (SK-MEL-5 melanoma) [µM] | TGI (SK-MEL-5 melanoma) | GI50 (SN12C renal) [µM] | TGI (SN12C renal) | GI50 (U251 CNS) [µM] | TGI (U251 CNS) | GI50 (UO-31 renal) | TGI (UO-31 renal)
1 | C=C(CN(CCN1CCOCC1)CC(=C)c1ccc(C(=O)Nc2ccccc2N)cc1)c1ccc(C(=O)Nc2ccccc2N)cc1 | 0.874 | 3.05 µM | 15.8 | > 50 | 2.49 | 9.11 µM | 2.62 | 28.9 µM | 10.1 | 39.8 µM | 5.31 | 16.1 | 8.38 | 16.7 µM | 7.43 | 21.2 µM | 5.78 | 12.4 µM | 5.2 µM | 11.4 µM
2 | O=C1/C(=C/c2ccc(C(F)(F)F)cc2)COc2ccc(O)cc21 | 1.57 | 2.93 µM | 3.24 | 10.6 | 2.14 | 5.38 µM | 1.59 | 3.69 µM | 1.7 | 3.09 µM | 1.68 | 3.3 | 1.97 | 4.38 µM | 1.73 | 3.46 µM | 1.66 | 3.06 µM | 1.26 µM | 2.67 µM
3 | CN(C)CCC(=O)NCc1c2nc3ccccc3nc2n2ccccc12 | 33.8 | > 100 µM | 26.3 | 69.5 | 65.6 | > 100 µM | 66.1 | > 100 µM | > 100 | > 100 µM | 21.9 | 43.2 | 16.8 | 52.8 µM | 68 | > 100 µM | > 100 | > 100 µM | 20.7 µM | > 100 µM
4 | C[C@@H]1CCC2[C@@H](C)[C@H](OC(=O)CCC(=O)NCCNC(=O)Cc3cc(=O)oc4cc(N(C)C)ccc34)O[C@@H]3O[C@]4(C)CC[C@@H]1C23OO4 (some centres not stated) | 6.85 | > 100 µM | 2.13 | > 74.5 | 0.749 | 46.6 µM | 0.731 | 11.1 µM | 0.629 | 18.1 µM | 3.22 | 24.3 | 1.48 | > 39.3 µM | 4.04 | > 100 µM | 1.33 | 19.1 µM | 0.897 µM | 4.15 µM
5 | CN(C(=O)C1CC1)C1C2CN3CCC(O2)C13 (configuration not stated) |  | > 100 µM |  | > 100 |  | > 100 µM |  | > 100 µM |  | > 100 µM |  | > 100 |  | > 100 µM |  | > 100 µM |  | > 100 µM |  | > 100 µM
6 | C=CC[C@@]1(C#N)C[C@H](C[C@]2(C#N)C[C@H](CCl)OC(C)(C)O2)OC(C)(C)O1 |  | > 100 µM |  | > 100 |  | > 100 µM |  | > 100 µM |  | > 100 µM |  | > 100 |  | > 100 µM |  | > 100 µM |  | > 100 µM |  | > 100 µM
7 | NC(=O)C12CCC1C1CCCCC12N1CCOCC1 (configuration not stated) |  | > 100 µM |  | > 100 |  | > 100 µM |  | > 100 µM |  | > 100 µM |  | > 100 |  | > 100 µM |  | > 100 µM |  | > 100 µM |  | > 100 µM
8 | CO[C@H]1/C=C/C[C@H](C)[C@@H](C)S(=O)(=O)NC(=O)c2ccc3c(c2)N(C[C@@H]2CC[C@H]21)C[C@@]1(CCCc2cc(Cl)ccc21)CO3 | 1.65 | 3.45 µM | 2.4 | 7.31 | 1.58 | 4.12 µM | 1.39 | 3.3 µM | 1.9 | 3.75 µM | 1.85 | 4.55 | 1.61 | 3.15 µM | 2.37 | 6.63 µM | 2.47 | 6.86 µM | 3.19 µM | 11.1 µM
9 | CCN1CCN(c2nc(C)cc(N(CCCNc3ccnc4cc(Cl)ccc34)Cc3ccco3)n2)CC1 | 2.05 | 5.89 µM | 1.89 | 3.63 | 9.9 | 27 µM | 3.12 | 12 µM | 4.29 | 20.3 µM | 1.75 | 3.46 | 1.81 | 3.3 µM | 5.55 | 19.5 µM | 2.41 | 6.26 µM | 1.83 µM | 4.3 µM
10 | c1ccc([P+](CCC[P+](c2ccccc2)(c2ccccc2)c2ccccc2)(c2ccccc2)c2ccccc2)cc1 |  | > 100 µM | 27.6 | > 100 | 18.8 | > 100 µM | 3.53 | > 100 µM and 24.8 µM | 4.41 | 83.7 µM and 35.5 µM | 15.1 | > 100 | 6.8 | 74.1 µM and 38.7 µM | 19.6 | > 100 µM |  | > 100 µM |  | > 100 µM
11 | c1cc(-c2cnn3nc(N4CCOCC4)ccc23)nc(NC2CC2)n1 | 8.64 | > 25 µM | 9.04 | > 25 | 7.19 | > 25 µM | 13.5 | > 25 µM | 8.17 | > 25 µM | 6.11 | 20.4 | 5.76 | 16.7 µM | 8.83 | > 25 µM | 6.97 | > 25 µM | 7.12 µM | > 21.4 µM
12 | Cc1ccc(C(=O)Nc2ccccc2C(=O)N/N=C(\c2ccccc2)c2ccccn2)cc1 | 0.381 | > 100 µM | 0.272 | 3.26 | 0.723 | > 100 µM | 0.582 | > 100 µM | 0.211 | > 100 µM | 0.309 | 6.95 | 0.271 | 1.15 µM | 0.76 | > 100 µM | 0.485 | > 100 µM | 0.107 µM | 2.66 µM
13 | Cc1ccc(C(=O)NC(C)C)cc1N=NN(C)C |  | > 100 µM |  | > 100 |  | > 100 µM |  | > 100 µM |  | > 100 µM |  | > 100 |  | > 100 µM |  | > 100 µM |  | > 100 µM |  | > 100 µM
14 | COc1cc(/C=N/O)nc(-c2ccccn2)c1 | 0.341 | > 100 µM |  | 4.98 |  | > 100 µM | 0.565 | > 100 µM | 0.324 | > 100 µM | 0.386 | 10.4 |  | 1.31 µM | 0.434 | > 44.7 µM | 0.374 | > 100 µM | 0.183 µM | 6.82 µM
15 | COc1cc2c(cc1-c1c(C)noc1C)ncc1[nH]c(=O)n([C@H](C)c3ccccn3)c12 | 2.5 | 17.8 µM | 3.19 | > 100 | 6.22 | > 100 µM | 0.0975 | 7.07 µM | 1.05 | > 47.9 µM | 0.677 | > 100 | 2.77 | > 44 µM | 4.48 | > 100 µM | 8.82 | > 100 µM | 0.119 µM | > 57.6 µM
16 | CCCCc1oc2ccccc2c1C(=O)c1cc(I)c(OCCN(CC)CC)c(I)c1 | 1.69 | 3.23 µM and 7.89 µM | 2.18 | 4.78 | 2.67 | 8.87 µM and 18 µM | 1.79 | 3.48 µM and 12.3 µM | 3.69 | 14.7 µM and 16.9 µM |  | 10.5 |  | 2.76 µM | 3.08 | 14.8 µM and 27.9 µM | 1.57 | 3 µM and 7.73 µM | 2.54 µM and 7.07 µM | 13.2 µM and 28.4 µM
17 | Cc1sc2c(c1C)C(c1ccc(Cl)cc1)=N[C@@H](CC(=O)Nc1ccc(O)cc1)c1nnc(C)n1-2 | 2.48 | 21.8 µM | 0.276 | 20.2 | 7.98 | 39.2 µM | 0.262 | 16.1 µM | 0.888 | 18.7 µM | 0.629 | 19 | 0.472 | 14.9 µM | 9.41 | 30.7 µM | 3.78 | 21.7 µM | 0.151 µM | 15.4 µM
18 | C#CCOc1cccc(Nc2ncnc3c2ncn3C2CCN(C(=O)CCl)C2)c1 (configuration not stated) | 18.2 | 37.3 µM | 16.9 | 48.5 | 18.4 | 41.3 µM | 5.02 | 19.7 µM | 17.2 | 31.4 µM | 17.7 | 32.4 | 17.2 | 34.2 µM | 15.4 | 35.5 µM | 18.1 | 35.1 µM | 15.2 µM | 29.6 µM
19 | COC(=O)NN=C1C(C)(C)C(=NNC(=O)OC)C1(C)C |  | > 100 µM |  | > 100 |  | > 78.1 µM |  | > 100 µM |  | > 100 µM |  | > 100 |  | > 100 µM |  | > 100 µM |  | > 100 µM |  | > 100 µM
20 | CN(C)NC(=S)NC12CC3CC(CC(C3)C1)C2 |  | > 100 µM |  | > 100 |  | > 100 µM |  | > 100 µM |  | > 100 µM |  | > 100 |  | > 100 µM |  | > 100 µM |  | > 100 µM |  | > 100 µM
21 | CCOC(CN(C)C(=O)OCC(Cl)(Cl)Cl)OCC |  | > 100 µM |  | > 100 |  | > 100 µM |  | > 100 µM |  | > 100 µM |  | > 100 |  | > 100 µM |  | > 100 µM |  | > 100 µM |  | > 100 µM
22 | C/C=C/COc1cc(NC(=S)c2ccoc2C)ccc1OC |  | > 100 µM |  | > 100 |  | > 100 µM |  | > 100 µM |  | > 100 µM |  | > 100 |  | > 100 µM |  | > 100 µM |  | > 100 µM |  | > 100 µM
23 | C[n+]1ccc2[nH]c3ccccc3c2c1 |  | > 100 µM |  | > 100 |  | > 100 µM |  | > 100 µM |  | > 100 µM |  | > 100 |  | > 100 µM |  | > 100 µM |  | > 100 µM |  | > 100 µM
24 | NC(N)=N/N=C(/c1ccccc1)c1ccc(O)cc1O |  | 32 µM |  | 58.7 |  | > 100 µM |  | 34.5 µM |  | > 100 µM |  | 39 |  | 65.8 µM |  | 91 µM |  | 57.3 µM |  | > 100 µM
